According to patent US20210387949A1, “NEW SELECTIVE MODULATORS OF INSECT NICOTINIC ACETYLCHOLINE RECEPTORS” (UNIVERSITE DE NANTES, priority 2018, published 2021):
Where two headings read alike, the source gives them in different places.

Experiments:
[1] = system: Honey bees Apis mellifera; conditions: literature values (Iwasa 2004; Stark 1995); cited from earlier work
honeybee Apis mellifera = experiment: Oral toxicity against honeybee; type: in vivo; conditions: for % mortality 24 h / % mortality 48 h: oral, DMSO 1%; for Toxicity for bees: higher concentrations (150 ng/bee), in words
Method: Honeybees were kept from hives located at the University of Orleans and transferred to the laboratory incubators for experiments (30±1.5° C.; 12/12 h 0/N). They were placed in six different cages, 20 bees per cage, with 40% sucrose solution (control group) or tested compounds.
All tests were carried out using adult worker honeybees, Apis mellifera L (Hymenoptera: Apidae) taken from two queen colonies. These colonies were disease-free and had received no chemical treatments (Eg. Varroacide). For oral toxicity tests, adult worker bees were collected from the hive combs (avoiding the brood nest area) or from the flight board.
Stock solutions of compounds were dissolved in dimethyl sulfoxide (DMSO) to obtain 500 ng/μL and stocked at −20° C. These samples were then diluted in sucrose solution (40%; w/v), for final experiments. […] Solutions of the test doses were stirred immediately prior to use and were visually homogenous when proposed to bees. Bee allocation to the treatment groups was made impartially. Before being used for the test, bees were subjected to a starvation period of between 2 h and 3 h under test conditions (For review, see Nauen, R.; Ebbinghaus-Kintscher, U.; Schmuck, R., Toxicity and nicotinic acetylcholine receptor interaction of imidacloprid and its metabolites in Apis mellifera (Hymenoptera: Apidae). Pest Management Science 2001, 57, (7), 577-586).
Six batches of bees (20 bees per batch) were subjected to different doses of the test compound (nominal doses between 50 ng/bee and […]). Doses were determined according to the lethal dose of neonicotinoid insecticides inducing bee toxic effects (Table 3). Controls received sucrose solution containing 0.25% DMSO. The glass test feeders containing any unconsumed portions of the doses were removed and after each experiment a fresh sucrose solution was supplied in feeders within the cages. For each concentration three replicates were made (180 bees/concentration). Mortality was measured at 24 h and 48 h after treatment.

[2] = system: cercal nerve giant interneuron synapses within the cockroach sixth abdominal ganglion (A6); experiment: Mannitol-gap recordings, neurotoxic effect on insect cholinergic synaptic transmission; type: cell-based; conditions: for EC50: read-out: EC50 of depolarization; for Depolarization of the sixth abdominal ganglion: in words; for Reversal of synaptic depolarization after wash-out: effect also observed 2 h after application
Method: Neurotoxic effect was studied using mannitol-gap recordings. Experiments were performed on the cercal nerve giant interneuron synapses located within the cockroach sixth abdominal ganglion (A6) using the mannitol-gap method pioneered by Callec (Callec, J. J.; Sattelle, D. B., A simple technique for monitoring the synaptic actions of pharmacological agents. J Exp Biol 1973, 59, (3), 725-38; and Callec, J. J.; Sattelle, D. B.; Hue, B.; Pelhate, M., Central synaptic actions of pharmacological agents in insects: oil-gap and mannitol-gap studies. In Neurotox 79, Sherwood, M., Ed. Plenum Press: New York, 1980; pp 93-100).
Electrical events were recorded using external electrodes. A non-electrolyte medium (mannitol) was interposed between the recording sites (Callec, J. J.; Sattelle, D. B.; Hue, B.; Pelhate, M., Central synaptic actions of pharmacological agents in insects: oil-gap and mannitol-gap studies. In Neurotox 79, Sherwood, M., Ed. Plenum Press: New York, 1980; pp 93-100). The main advantages of this method were to preserve the recordings of the unitary or evoked excitatory postsynaptic potentials (EPSP) and the postsynaptic polarization. Consequently, monitoring the variations of EPSP amplitude and/or polarization induced by drug application enables dose-response curves to be recorded. Moreover, this set-up allows long-term experiments to be performed and test solutions can be readily applied without any of the technical problems associated with intracellular recording.
A6 was carefully desheathed to facilitate penetration of bath-applied drugs. The recording electrodes were connected to the input of high-impedance amplifier, whose outputs were passed to a numeric oscilloscope (Hameg, Germany) and a chart recorder (Kipp and Zonen, B D 111, Holland). Variation of postsynaptic polarization was monitored on a chart recorder and the cEPSPs were evoked by electrical stimulations of the ipsilateral cercal nerve XI using a dual pulse stimulator (Campden 915, USA). TMX was applied during 3 min in the same conditions as previously published (Buckingham, S.; Lapied, B.; Corronc, H.; Sattelle, F., Imidacloprid actions on insect neuronal acetylcholine receptors. J Exp Biol 1997, 200, (Pt 21), 2685-92; and Thany, S. H., Agonist actions of clothianidin on synaptic and extrasynaptic nicotinic acetylcholine receptors expressed on cockroach sixth abdominal ganglion. Neurotoxicology 2009, 30, (6), 1045-52), with a micropump fast perfusion (Harvard Apparatus) that produced a constant solution exchange (500 μL/min). All muscarinic and nicotinic antagonists were bath-applied for at least 20 min before a single application of TMX. Recordings were made at room temperature.
To compare the depolarizations, the peak amplitudes were normalized (V/Vmax). The dose-response curve was derived from the fitted curve following the equation:
y=Vmin+(Vmax−Vmin)/(1+10^(log EC^50^−X)H)
where Y is the normalized response, Vmax and Vmin are the maximum and minimum responses, H is the Hill coefficient, EC50 is the concentration giving half the maximum response and X is the logarithm of the compound concentration.

[3] = bath application, dose-response curve of sixth abdominal ganglion depolarization

In the case of `CN/C(=N\[N+](=O)[O-])NCc1cnc(Cl)s1` [Clothianidin], the LD50 [1] is given as 21.8 ng/bee (Iwasa 2004).

Molecule `Cc1ccc(S(=O)(=O)N2CCCC2)cc1` [Compound 3aa, 1-tosylpyrrolidine] has a melting point of 129 °C.

With `Cc1ccc(S(=O)(=O)N2CCCC2C#N)cc1` (centres unmarked) [Compound 3ab, 1-tosylpyrrolidine-2-carbonitrile] the melting point was 102 °C.

`Cc1ccc(S(=O)(=O)N2CCC[C@H]2C#N)cc1` [Compound 3ac, (S)-1-tosylpyrrolidine-2-carbonitrile] gave a melting point of 102 °C.

For `O=S(=O)(c1ccc(Cl)cc1)N1CCCC1` [Compound 3ba, 1-((4-chlorophenyl)sulfonyl) pyrrolidine], the melting point was 106 °C.

With `N#CC1CCCN1S(=O)(=O)c1ccc(Cl)cc1` (centres unmarked) [Compound 3bb, 1-((4-chlorophenyl)sulfonyl) pyrrolidine-2-carbonitrile] the melting point was 115 °C.

In the case of `N#C[C@@H]1CCCN1S(=O)(=O)c1ccc(Cl)cc1` [Compound 3bc, (S)-1-((4-chlorophenyl)sulfonyl) pyrrolidine-2-carbonitrile], the melting point is reported as 115 °C.

With `O=S(=O)(c1ccc(Cl)nc1)N1CCCC1` [Compound 3da, 2-chloro-5-(pyrrolidin-1-ylsulfonyl)pyridine] the melting point was 134 °C.

In the case of `N#C[C@@H]1CCCN1S(=O)(=O)c1ccc(Cl)nc1` [Compound 3i, (S)-1-((6-chloropyridin-3-yl)sulfonyl)pyrrolidine-2-carbonitrile], the “% mortality 24 h” value (honeybee Apis mellifera; 50 ng/bee) is reported as 3.3%, the “% mortality 48 h” value (honeybee Apis mellifera; 50 ng/bee) is reported as 10.0% and the “% mortality 24 h” value (honeybee Apis mellifera; 150 ng/bee) is reported as 0%. The “% mortality 48 h” value (honeybee Apis mellifera; 150 ng/bee) was 0%, the EC50 [2, 3] was 19 µM and the “Depolarization of the sixth abdominal ganglion” value ([2]; bath application) was “strong depolarization”. The “Reversal of synaptic depolarization after wash-out” value (shortened to “Reversal of synaptic depolarization”) [2] was “not reversed after wash-out”.

With `COc1ccc(S(=O)(=O)N2CCCC2)cn1` [Compound 3ii, 2-methoxy-5-(pyrrolidin-1-ylsulfonyl)pyridine] the “% mortality 24 h” value (honeybee Apis mellifera; 50 ng/bee) was 0%, the “% mortality 48 h” value (honeybee Apis mellifera; 50 ng/bee) was 3.3% and the “% mortality 24 h” value (honeybee Apis mellifera; 150 ng/bee) was 0%. For the same molecule, the “% mortality 48 h” value (honeybee Apis mellifera; 150 ng/bee) was 1.2%, the Toxicity for bees (honeybee Apis mellifera) was “not toxic for bees” and the EC50 [2, 3] was 8.02 µM. The “Depolarization of the sixth abdominal ganglion” value ([2]; bath application) was “strong depolarization” and the “Reversal of synaptic depolarization” value [2] was “not reversed after wash-out”.

For `COc1ccc(S(=O)(=O)N2CCCC2C#N)cn1` (centres unmarked) [Compound 3iii, 1-((6-methoxypyridin-3-yl)sulfonyl)pyrrolidine-2-carbonitrile], the “% mortality 24 h” value (honeybee Apis mellifera; 50 ng/bee) was 3.3%, the “% mortality 48 h” value (honeybee Apis mellifera; 50 ng/bee) was 5.0% and the “% mortality 24 h” value (honeybee Apis mellifera; 150 ng/bee) was 2.5%. For the same molecule, the “% mortality 48 h” value (honeybee Apis mellifera; 150 ng/bee) was 3.7%, the EC50 [2, 3] was 4.25 µM and the “Depolarization of the sixth abdominal ganglion” value ([2]; bath application) was “strong depolarization”. The “Reversal of synaptic depolarization” value [2] was “not reversed after wash-out”.

In the case of `Cc1ccc(S(=O)(=O)N2CCC[C@H]2C#N)cn1` [Compound 3iv, (S)-1-((6-methylpyridin-3-yl)sulfonyl)pyrrolidine-2-carbonitrile], the “% mortality 24 h” value (honeybee Apis mellifera; 50 ng/bee) is reported as 0%, the “% mortality 48 h” value (honeybee Apis mellifera; 50 ng/bee) is reported as 0% and the “% mortality 24 h” value (honeybee Apis mellifera; 150 ng/bee) is reported as 0%. The “% mortality 48 h” value (honeybee Apis mellifera; 150 ng/bee) was 0%, the Toxicity for bees (honeybee Apis mellifera) was “not toxic for bees” and the “Depolarization of the sixth abdominal ganglion” value ([2]; bath application) was “strong depolarization”. For the same molecule, the “Reversal of synaptic depolarization” value [2] was “not reversed after wash-out”.

For `CN/C(=N/CC1CCOC1)N[N+](=O)[O-]` (centres unmarked) [Dinotefuran], the LD50 [1] is given as 75 ng/bee (Iwasa 2004).

Work on `O=[N+]([O-])NC1=NCCN1Cc1ccc(Cl)nc1` [Imidacloprid, reference compound] yielded an EC50 [2] of roughly 15 µM.

In the case of `CCN(Cc1ccc(Cl)nc1)/C(=C/[N+](=O)[O-])NC` [Nitenpyram], the LD50 [1] is listed as 138 ng/bee.

For `CN1COCN(Cc2cnc(Cl)s2)/C1=N\[N+](=O)[O-]` [Thiamethoxam], the LD50 [1] is listed as 29.9 ng/bee (Iwasa 2004).
